Values joined by “and” are separate entries in the source; they are usually repeats but may differ in a detail not shown here. Equal entries are not always repeated. “Also recorded” adds a separate entry of the source. Where two headings read alike, the source gives them in different places.
Columns and labels:
SMARCA2 = SMARCA2 (Homo sapiens, UniProt P51531); experiment: SMARCA2 IHC in NCI-H1568 xenograft tumours; type: in vivo, mouse; parameters: from tissue; host or cells: subcutaneous NCI-H1568 or A549 xenograft tumours in BomTac:NMRI-Foxn1nu mice; settings: NCI-H1568 xenograft; for SMARCA2 (OD, normalised) / SMARCA2 Nuclear OD: qd, end of study
Sequence of SMARCA2 (P51531 whole entry): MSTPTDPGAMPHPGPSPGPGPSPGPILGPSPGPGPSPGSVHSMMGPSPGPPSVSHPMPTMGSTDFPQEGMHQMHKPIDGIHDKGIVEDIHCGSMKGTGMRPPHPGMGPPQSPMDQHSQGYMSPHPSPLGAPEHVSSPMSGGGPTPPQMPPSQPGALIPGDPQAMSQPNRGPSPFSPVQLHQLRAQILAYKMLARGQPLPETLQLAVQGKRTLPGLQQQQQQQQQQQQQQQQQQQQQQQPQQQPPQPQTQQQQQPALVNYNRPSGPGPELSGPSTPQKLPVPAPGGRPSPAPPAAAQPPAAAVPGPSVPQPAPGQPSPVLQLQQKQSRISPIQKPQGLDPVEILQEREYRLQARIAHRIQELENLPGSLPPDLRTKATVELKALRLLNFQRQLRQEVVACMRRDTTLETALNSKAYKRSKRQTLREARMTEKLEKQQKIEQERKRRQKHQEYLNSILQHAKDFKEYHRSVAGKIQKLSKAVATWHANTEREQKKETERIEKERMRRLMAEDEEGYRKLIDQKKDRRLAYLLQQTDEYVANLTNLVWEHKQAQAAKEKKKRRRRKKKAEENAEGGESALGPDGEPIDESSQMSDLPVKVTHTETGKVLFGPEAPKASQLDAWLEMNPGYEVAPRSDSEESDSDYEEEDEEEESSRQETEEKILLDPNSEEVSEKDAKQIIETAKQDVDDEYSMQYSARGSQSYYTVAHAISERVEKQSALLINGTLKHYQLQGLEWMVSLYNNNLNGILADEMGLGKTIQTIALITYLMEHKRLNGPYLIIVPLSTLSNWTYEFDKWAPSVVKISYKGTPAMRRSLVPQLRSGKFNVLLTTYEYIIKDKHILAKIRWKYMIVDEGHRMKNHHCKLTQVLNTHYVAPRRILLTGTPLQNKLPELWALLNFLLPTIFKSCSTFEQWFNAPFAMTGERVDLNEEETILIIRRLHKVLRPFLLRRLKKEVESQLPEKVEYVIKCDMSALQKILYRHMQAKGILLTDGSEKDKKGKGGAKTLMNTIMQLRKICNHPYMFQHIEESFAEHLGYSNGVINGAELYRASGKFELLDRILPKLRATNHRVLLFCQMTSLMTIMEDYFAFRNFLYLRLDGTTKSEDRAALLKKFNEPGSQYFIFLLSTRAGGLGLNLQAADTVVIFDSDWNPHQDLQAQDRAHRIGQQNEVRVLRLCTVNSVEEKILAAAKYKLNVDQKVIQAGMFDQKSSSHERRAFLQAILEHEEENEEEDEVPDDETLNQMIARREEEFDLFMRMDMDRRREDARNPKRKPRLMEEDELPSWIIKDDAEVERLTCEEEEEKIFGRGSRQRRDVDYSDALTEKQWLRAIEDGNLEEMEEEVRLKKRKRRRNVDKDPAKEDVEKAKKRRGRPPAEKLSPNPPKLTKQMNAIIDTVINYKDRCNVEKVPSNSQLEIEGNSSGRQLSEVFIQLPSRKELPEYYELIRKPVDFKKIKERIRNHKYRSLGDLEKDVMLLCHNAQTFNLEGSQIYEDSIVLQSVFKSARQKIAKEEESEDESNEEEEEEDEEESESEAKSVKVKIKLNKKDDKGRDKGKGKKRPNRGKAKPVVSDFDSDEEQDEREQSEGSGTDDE
Description: To establish subcutaneous tumours, mice were injected with 5 × 10^6 NCI-H1568 in PBS with 5% FCS or with 1 × 10^7 A549 cells in PBS with 5% FCS. Tumour diameters were measured with a caliper three times a week. The volume of each tumour (in mm^3) was calculated according to the formula [tumour volume = length × diameter^2 × π/6]. To monitor side effects of treatment, mice were inspected daily for abnormalities and body weight was determined daily after the start of treatment. Animals were sacrificed when the tumours reached a size of 1500 mm^3. Mice were randomised into treatment groups when the average tumour size reached ~210–220 mm^3. Group sizes were calculated individually for each tumour model based on tumour growth during model establishment experiments. A power analysis was performed using a sample size calculator (https://www.stat.ubc.ca/~rollin/stats/ssize/n2.html). For both models used in the study, 10 mice per group were used for each experiment. All administrations were dosed with 10 ml/kg (s.c. and oral). Control mice were dosed subcutaneously with 10% HP-β-CD in 50% Ringer solution and orally with 15% HP-β-CD, that means the control mouse treatment was corresponding to the solvent of the compounds. Compound 6 was dosed subcutaneously either in a d1-4 q3d, d6-8 q2d, d11-13 q2d treatment (Treatment 1) or a q3 or 4d treatment (Treatment 2).
Xenograft samples were fixed in 10% formaldehyde for 24 h and later moved to ethanol and embedded in paraffin. 2 µm-thick sections were cut using a microtome, then placed on glass slides ([…], silan printer slides PR-S:001), and subsequently dewaxed. SMARCA2 immunohistochemistry was carried out on the Leica BOND RX platform (Leica Biosystems) according to manufacturer’s instructions using a human-specific SMARCA2 antibody (Cell Signalling #11966 clone D9E8B RRID:AB_2797783 1:400) where the tissue underwent a heat-induced epitope retrieval for 20 min. After staining, the slides were cover-slipped with Shandon Consul-Mount glass covers, scanned using a slide scanner (3D HISTECH Ltd.). All slides were reviewed and evaluated for quality by a board-certified MD specialist in Anatomic Pathology (PC). Imaging analysis was performed using the digital pathology platform HALO (Indica Labs). A tissue-classifying algorithm was trained to selectively recognise viable tumour tissue against stroma, necrosis, and skin. The tissue classification output for each scan was reviewed and manually edited as necessary. A cell detection and scoring algorithm was trained to measure DAB optical density (OD) in the nuclei of tumour cells. A positivity threshold for DAB OD was determined by normalisation with respect to the DAB OD as calculated from bona fide negative tissue (e.g. murine stroma as background). The average, background-normalised DAB OD of tumour cell nuclei was used to quantitate SMARCA2 expression in each xenograft sample.

[1] = Pharmacokinetic analyses in mouse; type: in vivo; settings: for AUC(0-t): read-out: AUC0-24h; for Vd: read-out: Vss
Description: Compound concentrations in plasma aliquots were measured by quantitative HPLC-MS/MS using an internal standard. Calibration and quality control samples were prepared using blank plasma from untreated animals. Samples were precipitated with acetonitrile and injected into a HPLC system (Agilent 1200). Separation was performed by gradients of 5 mmol/L ammonium acetate pH 4.0 and acetonitrile with 0.1% formic acid on a 2.1 mm by 50 mm XBridge BEH C18 reversed-phase column with 2.5 µm particles (Waters). The HPLC was interfaced by ESI operated in positive ionisation mode to a triple quadrupole mass spectrometer (5000 or 6500+ Triple Quad System, SCIEX) operated in multiple reaction monitoring mode. Transitions were 532.4 to 432.8 m/z for BI01810284, 525.6 to 425.7 m/z for BI01802983 and 1021.6 to 624.2 m/z for BI01580883. Chromatograms were analyzed with Analyst (SCIEX) and pharmacokinetic parameters were calculated by non-compartmental analysis using BI-proprietary software.

[2] = 30 mg/kg po, individual tumours, 30 mg/kg
[3] = 100 mg/kg, PO, 48 h, individual tumours
[4] = 5 mg/kg i.v., individual animals
[5] = 30 mg/kg p.o., individual animals
[6] = NMRI, mouse, plasma, iv, 5 mg/kg, NMRI mice, i.v., 5 mg/kg, PK study
[7] = mouse, 5 mg/kg i.v., NCA, individual animals, 5 mg/kg
[8] = mouse, 30 mg/kg p.o., NCA, individual animals, 30 mg/kg

SMILES: Cc1ncsc1-c1ccc([C@H](CCCCCN2CCC(c3ccc4c(c3)n(C3CCCC3)c3nc(=O)c5c(Br)cccc5n43)CC2)NC(=O)[C@@H]2C[C@@H](O)CN2C(=O)[C@@H](NC(=O)C2(F)CC2)C(C)(C)C)cc1 [compound 11]
- SMARCA2 levels in tumours at the end of the efficacy study, IHC (SMARCA2): undetectable by IHC in most treated tumour samples; also recorded: below the limit of detection
- SMARCA2 (OD, normalised) (SMARCA2; [2]): 0.00000 and 0.00917
- SMARCA2 Nuclear OD (SMARCA2; [2]): 0.03172 and 0.04361 and 0.06213 and 0.0483
- median decrease of SMARCA2 levels in viable tumour tissue compared to vehicle (SMARCA2; 100 mg/kg p.o., 48 h after treatment): 89%
- SMARCA2 (OD, normalised) (SMARCA2; 100 mg/kg po, individual tumours): 0.00000
- SMARCA2 Nuclear OD (SMARCA2; 100 mg/kg po, individual tumours, 100 mg/kg): 0.03159 and 0.03653 and 0.04664 and 0.03486
- Avg Stain 1 Nuclear OD (SMARCA2 IHC) (SMARCA2; [3]): 7.84E-02 and 7.05E-02 and 6.17E-02 and 6.89E-02
- Normalised SMARCA2 (OD) (SMARCA2; [3]): 0.04325 and 0.03531 and 0.02651 and 0.03377
- AUC [1, 4]: 40.7 µM·h and 36.8 µM·h
- AUCinf [1, 4]: 40.9 µM·h and 37 µM·h
- Concentration ([1]; 5 mg/kg i.v., time 0.25 h, individual animals): 8050 nM
- Concentration ([1]; 5 mg/kg i.v., time 1 h, individual animals): 5350 nM
- Concentration ([1]; 5 mg/kg i.v., time 6 h, individual animals): 807 nM
- Concentration ([1]; 5 mg/kg i.v., time 24 h, individual animals): 37.6 nM
- F ([1]; 30 mg/kg p.o. vs 5 mg/kg i.v., individual animals): 4.09% and 2.11% and 6.74%
- AUC [1, 5]: 8.84 µM·h and 4.54 µM·h and 14.6 µM·h
- AUCinf [1, 5]: 8.88 µM·h and 4.57 µM·h and 14.6 µM·h
- MRT ([1]; NMRI, mouse, plasma, iv, 5 mg/kg, NMRI mice, PK study): 2.9 h
- AUC(0-t) [1, 6]: 36 µM·h
- AUC(0-inf) ([1]; NMRI, mouse, plasma, iv, 5 mg/kg, NMRI mice, i.v., 5 mg/kg, PK study, read-out: AUC0-inf): 36 µM·h
- clearance ([1]; NMRI, mouse, plasma, iv, 5 mg/kg, NMRI mice, i.v., 5 mg/kg, PK study, read-out: Clearance): 2.2 mL/min/kg
- Vd [1, 6]: 0.38 L/kg
- MRT ([1]; NMRI, mouse, plasma, po, 30 mg/kg, NMRI mice, PK study): 5 h
- MRT ([1]; NMRI, mouse, plasma, po, 30 mg/kg, NMRI mice, Xenograft study): 5.6 h
- AUC(0-t) ([1]; NMRI, mouse, plasma, po, 30 mg/kg, NMRI mice, p.o., 30 mg/kg, PK study): 9.3 µM·h
- AUC(0-inf) ([1]; NMRI, mouse, plasma, po, 30 mg/kg, NMRI mice, p.o., 30 mg/kg, PK study, read-out: AUC0-inf): 9.4 µM·h
- bioavailability ([1]; NMRI, mouse, plasma, po, 30 mg/kg, NMRI mice, p.o., 30 mg/kg, PK study, read-out: Bioavailability): 4.3%
- AUC(0-t) ([1]; NMRI, mouse, plasma, po, 30 mg/kg, NMRI mice, p.o., 30 mg/kg, Xenograft study): 21 µM·h
- AUC(0-inf) ([1]; NMRI, mouse, plasma, po, 30 mg/kg, NMRI mice, p.o., 30 mg/kg, Xenograft study, read-out: AUC0-inf): 21 µM·h
- MRT ([1]; NMRI, mouse, plasma, po, 100 mg/kg, NMRI mice): 5.1 h
- AUC(0-t) ([1]; NMRI, mouse, plasma, po, 100 mg/kg, NMRI mice, p.o., 100 mg/kg): 38 µM·h
- AUC(0-inf) ([1]; NMRI, mouse, plasma, po, 100 mg/kg, NMRI mice, p.o., 100 mg/kg, read-out: AUC0-inf): 39 µM·h
- Plasma concentration ([1]; mouse, 5 mg/kg i.v., 0.25 h, individual animals, 5 mg/kg): 9710 nM and 10400 nM
- Plasma concentration ([1]; mouse, 5 mg/kg i.v., 1 h, individual animals, 5 mg/kg): 5970 nM and 6930 nM
- Plasma concentration ([1]; mouse, 5 mg/kg i.v., 6 h, individual animals, 5 mg/kg): 1490 nM and 870 nM
- Plasma concentration ([1]; mouse, 5 mg/kg i.v., 24 h, individual animals, 5 mg/kg): 42.1 nM and 41.5 nM
- AUC [1, 7]: 40.7 µM·h and 36.8 µM·h
- AUCinf [1, 7]: 40.9 µM·h and 37 µM·h
- CL [1, 7]: 1.94 mL/min/kg and 2.14 mL/min/kg
- Vss [1, 7]: 0.386 L/kg and 0.334 L/kg
- Plasma concentration ([1]; mouse, 30 mg/kg p.o., 0.333 h, individual animals, 30 mg/kg): 172 nM and 94.6 nM and 199 nM
- Plasma concentration ([1]; mouse, 30 mg/kg p.o., 1 h, individual animals, 30 mg/kg): 438 nM and 509 nM
- Plasma concentration ([1]; mouse, 30 mg/kg p.o., 2 h, individual animals, 30 mg/kg): 577 nM and 1020 nM
- Plasma concentration ([1]; mouse, 30 mg/kg p.o., 6 h, individual animals, 30 mg/kg): 565 nM and 239 nM and 1040 nM
- Plasma concentration ([1]; mouse, 30 mg/kg p.o., 24 h, individual animals, 30 mg/kg): 6.48 nM and 10.4 nM
- AUC [1, 8]: 8.84 µM·h and 4.54 µM·h and 14.6 µM·h
- AUCinf [1, 8]: 8.88 µM·h and 4.57 µM·h and 14.6 µM·h
- F [1, 8]: 4.09% and 2.11% and 6.74%
- concentration at 0.25 h ([1]; mouse, plasma, intravenous, 5 mg/kg, 5 mg/kg i.v., time 0.25 h, individual animals, read-out: Concentration): 9710 nM
- concentration at 1 h ([1]; mouse, plasma, intravenous, 5 mg/kg, 5 mg/kg i.v., time 1 h, individual animals, read-out: Concentration): 5970 nM
- concentration at 6 h ([1]; mouse, plasma, intravenous, 5 mg/kg, 5 mg/kg i.v., time 6 h, individual animals, read-out: Concentration): 1490 nM
- concentration at 24 h ([1]; mouse, plasma, intravenous, 5 mg/kg, 5 mg/kg i.v., time 24 h, individual animals, read-out: Concentration): 42.1 nM
- AUC ([1]; mouse, plasma, iv, 5 mg/kg, 5 mg/kg i.v., individual animals, read-out: AUC): 30.4 µM·h
- AUC(0-inf) ([1]; mouse, plasma, iv, 5 mg/kg, 5 mg/kg i.v., individual animals, read-out: AUCinf): 30.6 µM·h
- concentration at 0.25 h ([1]; mouse, plasma, iv, 5 mg/kg, mouse, 5 mg/kg i.v., 0.25 h, individual animals, read-out: Plasma concentration): 8050 nM
- concentration at 1 h ([1]; mouse, plasma, iv, 5 mg/kg, mouse, 5 mg/kg i.v., 1 h, individual animals, read-out: Plasma concentration): 5350 nM
- concentration at 6 h ([1]; mouse, plasma, iv, 5 mg/kg, mouse, 5 mg/kg i.v., 6 h, individual animals, read-out: Plasma concentration): 807 nM
- concentration at 24 h ([1]; mouse, plasma, iv, 5 mg/kg, mouse, 5 mg/kg i.v., 24 h, individual animals, read-out: Plasma concentration): 37.6 nM
- AUC ([1]; mouse, plasma, iv, 5 mg/kg, mouse, 5 mg/kg i.v., NCA, individual animals, read-out: AUC): 30.4 µM·h
- AUC(0-inf) ([1]; mouse, plasma, iv, 5 mg/kg, mouse, 5 mg/kg i.v., NCA, individual animals, read-out: AUCinf): 30.6 µM·h
- clearance ([1]; mouse, plasma, iv, 5 mg/kg, mouse, 5 mg/kg i.v., NCA, individual animals, read-out: CL): 2.59 mL/min/kg
- Vd ([1]; mouse, plasma, iv, 5 mg/kg, mouse, 5 mg/kg i.v., NCA, individual animals): 0.435 L/kg
- Vd ([1]; mouse, plasma, iv, 5 mg/kg, mouse, 5 mg/kg i.v.): 0.385 L/kg
- clearance ([1]; mouse, plasma, iv, 5 mg/kg, mouse, 5 mg/kg i.v., read-out: clearance): 2.2 mL/min/kg
- concentration at 1 h ([1]; mouse, plasma, oral, 30 mg/kg, 30 mg/kg p.o., time 1 h, individual animals, read-out: Concentration): 337 nM
- concentration at 2 h ([1]; mouse, plasma, oral, 30 mg/kg, 30 mg/kg p.o., time 2 h, individual animals, read-out: Concentration): 874 nM
- concentration at 24 h ([1]; mouse, plasma, oral, 30 mg/kg, 30 mg/kg p.o., time 24 h, individual animals, read-out: Concentration): 8.75 nM
- bioavailability ([1]; mouse, plasma, oral, 30 mg/kg, mouse, 30 mg/kg p.o. vs 5 mg/kg i.v., read-out: F% p.o. (oral bioavailability)): 3%
- concentration at 1 h ([1]; mouse, plasma, po, 30 mg/kg, mouse, 30 mg/kg p.o., 1 h, individual animals, read-out: Plasma concentration): 337 nM
- concentration at 2 h ([1]; mouse, plasma, po, 30 mg/kg, mouse, 30 mg/kg p.o., 2 h, individual animals, read-out: Plasma concentration): 874 nM
- concentration at 24 h ([1]; mouse, plasma, po, 30 mg/kg, mouse, 30 mg/kg p.o., 24 h, individual animals, read-out: Plasma concentration): 8.75 nM

From PMC9551036, “A selective and orally bioavailable VHL-recruiting PROTAC achieves SMARCA2 degradation in vivo” (Nature Communications, 2022)
